Results on two molecules are retold here after ChEMBL document CHEMBL3600331, “Small molecule inhibits activity of scavenger receptor A: Lead identification and preliminary studies” (Bioorg Med Chem Lett, 2015).

The source made the active and inactive calls. No cut-off for these calls is given here.

Assay [1] concerns the target T1, Macrophage scavenger receptor types I and II (Mus musculus) (UniProt P30204).
T1 sequence (whole entry): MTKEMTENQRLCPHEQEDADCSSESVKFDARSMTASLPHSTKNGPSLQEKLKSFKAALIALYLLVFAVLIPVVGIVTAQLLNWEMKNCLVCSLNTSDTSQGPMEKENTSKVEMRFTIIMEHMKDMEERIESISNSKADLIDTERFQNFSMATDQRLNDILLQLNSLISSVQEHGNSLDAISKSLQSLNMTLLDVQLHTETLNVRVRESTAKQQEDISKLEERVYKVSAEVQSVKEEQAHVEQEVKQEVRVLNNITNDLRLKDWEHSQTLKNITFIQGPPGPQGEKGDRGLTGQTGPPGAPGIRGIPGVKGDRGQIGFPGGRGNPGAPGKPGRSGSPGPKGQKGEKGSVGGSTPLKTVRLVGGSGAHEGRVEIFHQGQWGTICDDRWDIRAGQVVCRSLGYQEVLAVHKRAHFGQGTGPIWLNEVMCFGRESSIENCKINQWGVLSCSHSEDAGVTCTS
The assay can be described thus: Inhibition of scavenger receptor A in wild type C57BL/6 mouse BMDC assessed as gp100 (25 to 33) peptide-induced T cell activation by measuring IL2 production at 20 uM after 56 hrs by ELISA. Background: In an ELISA, binding on a coated surface is turned into a signal by an enzyme label.

The target of assay [2] is T1, Macrophage scavenger receptor types I and II (Mus musculus). The assay can be described thus: Inhibition of scavenger receptor A in mouse DC1.2 cells assessed as decrease in poly(I:C)-induced activation of IRF3 pretreated for 2 hrs before poly(I:C) stimulation measured after 3 hrs by immunoblotting. It counts as cell-based. For orientation: A western blot detects proteins with antibodies after separation by electrophoresis.

Assay [3] shares this target. The assay can be described thus: Inhibition of scavenger receptor A in wild type C57BL/6 mouse BMDC assessed as OVA257-264 peptide-induced T cell activation by measuring IL2 production at 10 uM after 56 hrs by ELISA.
The target is the same in assay [4]. The assay can be described thus: Inhibition of scavenger receptor A in mouse DC1.2 cells assessed as decrease in poly(I:C)-induced activation of STAT1 pretreated for 2 hrs before poly(I:C) stimulation measured after 3 hrs by immunoblotting. It counts as cell-based.
The target is the same in assay [5]. The assay can be described thus: Inhibition of scavenger receptor A in wild type C57BL/6 mouse BMDC assessed as OVA257-264 peptide-induced T cell activation by measuring IL2 production at 30 uM after 56 hrs by ELISA.
For assay [6], the system named is T-cell. The assay can be described thus: Inhibition of OVA257-264 peptide-induced T cell activation in SRA-deficient C57BL/6 mouse BMDC assessed as IL2 production at 10 to 30 uM after 56 hrs by ELISA. It counts as functional, cell-based.
The test system of assay [7] is B3Z. The assay can be described thus: Inhibition of scavenger receptor A (unknown origin) in mouse B3Z cells assessed as anti-CD3/CD28 antibody-induced T cell activation by measuring transcription of il2 gene after 5 hrs by beta-galactosidase assay. It counts as cell-based.

Turning to `O=C(O)c1cc(O)c2c(c1)[C@@H]([C@H]1c3cc(C(=O)O)cc(O)c3C(=O)c3c(O[C@@H]4O[C@H](CO)[C@@H](O)[C@H](O)[C@H]4O)cccc31)c1cccc(O[C@@H]3O[C@H](CO)[C@@H](O)[C@H](O)[C@H]3O)c1C2=O`, the inhibition result in assay [1] was “Active”.

Take `O=C(O)c1cc(O)c2c(c1)C(=O)c1cccc(O)c1C2=O`: the inhibition entry in assay [1], in assay [3] and in assay [5] was “Active” in each case. Also, the inhibition entry in assay [2], in assay [4] and in assay [7] was “Dose-dependent effect” in each case. Besides, the inhibition result in assay [6] is “inactive”.
